Data on 15 molecules can be found in ChEMBL document CHEMBL4813918, “From off-to on-target: New BRAF-inhibitor-template-derived compounds selectively targeting mitogen activated protein kinase kinase 4 (MKK4)” (Eur J Med Chem, 2021).

Experiment [1] has as its target Mitogen-activated protein kinase kinase kinase 20 (Homo sapiens) (UniProt Q9NYL2). Put plainly: Binding affinity to wild type partial length human ZAK (M1 to L331) expressed in bacterial expression system assessed as residual activity at 100 nM measured by Kinomescan assay.
For experiment [2], the target named is T1, Dual specificity mitogen-activated protein kinase kinase 7 (Homo sapiens) (UniProt O14733).
T1 sequence (whole entry): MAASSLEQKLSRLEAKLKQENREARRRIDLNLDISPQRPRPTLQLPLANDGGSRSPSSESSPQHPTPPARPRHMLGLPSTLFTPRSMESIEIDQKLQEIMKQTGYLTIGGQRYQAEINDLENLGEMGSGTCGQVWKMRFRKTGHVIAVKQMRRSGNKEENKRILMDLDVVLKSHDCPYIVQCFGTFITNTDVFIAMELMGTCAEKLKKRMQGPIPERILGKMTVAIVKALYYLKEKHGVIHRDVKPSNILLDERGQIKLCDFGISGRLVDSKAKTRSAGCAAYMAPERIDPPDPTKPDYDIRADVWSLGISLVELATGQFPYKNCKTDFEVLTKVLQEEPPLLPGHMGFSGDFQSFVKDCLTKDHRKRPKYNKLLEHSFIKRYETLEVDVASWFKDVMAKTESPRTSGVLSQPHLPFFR
Put plainly: Binding affinity to wild type full length human MKK7 (M1 to R419 residues) expressed in mammalian expression system assessed as residual activity at 100 nM measured by Kinomescan assay.

Experiment [3] has as its target Mitogen-activated protein kinase kinase kinase kinase 5 (Homo sapiens) (UniProt Q9Y4K4). As to the kind of experiment: Binding affinity to wild type partial length human MAP4K5 (M1 to P297) expressed in Bacterial expression system assessed as residual activity at 100 nM measured by Kinomescan assay relative to control.

Sequence of Mitogen-activated protein kinase kinase kinase 20 (Homo sapiens) (Q9NYL2 2-800 limits assumed): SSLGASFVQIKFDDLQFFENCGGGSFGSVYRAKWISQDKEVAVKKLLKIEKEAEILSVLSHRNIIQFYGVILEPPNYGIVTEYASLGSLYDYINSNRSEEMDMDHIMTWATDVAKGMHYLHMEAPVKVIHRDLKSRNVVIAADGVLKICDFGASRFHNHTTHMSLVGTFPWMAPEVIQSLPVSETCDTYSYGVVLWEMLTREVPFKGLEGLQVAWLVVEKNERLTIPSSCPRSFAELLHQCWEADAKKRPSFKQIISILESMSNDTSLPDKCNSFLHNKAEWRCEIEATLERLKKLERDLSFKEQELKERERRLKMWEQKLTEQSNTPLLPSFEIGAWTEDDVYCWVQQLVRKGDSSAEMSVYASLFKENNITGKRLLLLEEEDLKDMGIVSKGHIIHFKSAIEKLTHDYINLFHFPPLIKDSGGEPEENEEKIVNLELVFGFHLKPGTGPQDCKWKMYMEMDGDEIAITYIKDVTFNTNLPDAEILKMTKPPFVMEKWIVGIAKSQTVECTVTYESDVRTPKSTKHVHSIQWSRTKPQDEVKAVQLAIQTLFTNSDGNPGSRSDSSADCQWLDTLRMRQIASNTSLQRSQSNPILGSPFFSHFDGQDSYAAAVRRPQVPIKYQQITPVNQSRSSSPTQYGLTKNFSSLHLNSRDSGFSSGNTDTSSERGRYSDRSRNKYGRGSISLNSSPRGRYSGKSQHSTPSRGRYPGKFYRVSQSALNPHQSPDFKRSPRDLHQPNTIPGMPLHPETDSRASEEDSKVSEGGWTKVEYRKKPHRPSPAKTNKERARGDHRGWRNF
Sequence of Mitogen-activated protein kinase kinase kinase kinase 5 (Homo sapiens) (Q9Y4K4 whole entry, looked up): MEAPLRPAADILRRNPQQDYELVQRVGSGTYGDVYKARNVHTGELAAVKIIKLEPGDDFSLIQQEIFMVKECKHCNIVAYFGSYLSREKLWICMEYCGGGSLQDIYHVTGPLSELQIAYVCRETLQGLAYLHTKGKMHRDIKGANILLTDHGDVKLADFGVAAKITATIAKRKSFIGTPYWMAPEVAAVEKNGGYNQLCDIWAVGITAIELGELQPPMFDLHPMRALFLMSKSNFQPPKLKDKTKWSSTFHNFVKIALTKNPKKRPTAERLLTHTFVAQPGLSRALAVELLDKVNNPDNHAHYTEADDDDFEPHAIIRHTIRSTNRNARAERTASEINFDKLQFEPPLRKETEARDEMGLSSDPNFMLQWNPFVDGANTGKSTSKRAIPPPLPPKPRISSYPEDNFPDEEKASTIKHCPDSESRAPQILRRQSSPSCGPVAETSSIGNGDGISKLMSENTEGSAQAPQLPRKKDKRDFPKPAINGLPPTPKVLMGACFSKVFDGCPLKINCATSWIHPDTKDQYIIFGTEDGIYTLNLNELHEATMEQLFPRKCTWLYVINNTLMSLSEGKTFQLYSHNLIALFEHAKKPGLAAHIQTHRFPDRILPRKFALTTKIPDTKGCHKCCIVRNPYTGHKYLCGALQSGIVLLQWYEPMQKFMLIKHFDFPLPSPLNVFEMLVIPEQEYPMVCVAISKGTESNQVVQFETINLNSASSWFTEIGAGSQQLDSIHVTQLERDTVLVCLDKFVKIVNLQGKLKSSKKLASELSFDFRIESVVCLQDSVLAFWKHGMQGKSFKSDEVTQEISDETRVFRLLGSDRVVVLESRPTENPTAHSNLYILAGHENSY

Take `CCCS(=O)(=O)Nc1ccc(F)c(C(=O)c2c[nH]c3ncc(-c4ccccc4OC)cc23)c1F`: the Activity in experiment [1] amounted to 16%; in experiment [2], 100%; in experiment [3], 43%.

For the molecule `CCCS(=O)(=O)Nc1ccc(F)c(C(=O)c2c[nH]c3ncc(-c4ccc(F)cc4)cc23)c1F`, the Activity in experiment [1] is 0.9%; in experiment [2], 100%; in experiment [3] it was 67%.

Regarding `Cc1cc(F)ccc1-c1cnc2[nH]cc(C(=O)c3cccc(NS(=O)(=O)Cc4ccccc4)c3F)c2c1`, the Activity in experiment [1] is 90%; in experiment [2] it was 98%; in experiment [3], 97%.

On to `O=C(c1c(F)ccc(NS(=O)(=O)CCc2ccccc2)c1F)c1c[nH]c2ncc(-c3ccc(Cl)cc3)cc12`, for which the Activity in experiment [1] is 53%; in experiment [2] it was 97%; in experiment [3], 100%.

Consider `CCCS(=O)(=O)Nc1ccc(F)c(C(=O)c2c[nH]c3ncc(-c4cc5c(cc4Cl)OCO5)cc23)c1F`, for which the results for the Activity in experiment [1], in experiment [2] and in experiment [3] were 26%, 100% and 99%, respectively.

With `CCCCS(=O)(=O)Nc1ccc(F)c(C(=O)c2c[nH]c3ncc(-c4ccc(Cl)cc4)cc23)c1F`, the Activity in experiment [1] was found to be 29%; in experiment [2] it was 100%; in experiment [3], 75%.

For `CCCS(=O)(=O)Nc1ccc(F)c(C(=O)c2c[nH]c3ncc(-c4ccc5c(c4)OCCO5)cc23)c1F`, the Activity in experiment [1] came out at 2.2%; in experiment [2], 100%; in experiment [3] it was 84%.

For `CCCS(=O)(=O)Nc1ccc(F)c(C(=O)c2c[nH]c3ncc(-c4cccc(F)c4)cc23)c1F`, the Activity in experiment [1] turned out to be 0.8%; in experiment [2], 90%; in experiment [3], 45%.

`CCCS(=O)(=O)Nc1ccc(F)c(C(=O)c2c[nH]c3ncc(-c4ccc(F)cc4C)cc23)c1F`: the Activity in experiment [1] was 14%; in experiment [2], 100%; in experiment [3] it was 100%.

Regarding `CCCS(=O)(=O)Nc1ccc(F)c(C(=O)c2c[nH]c3ncc(-c4ccc5c(c4)OCO5)cc23)c1F`, the figures for the Activity in experiment [1], in experiment [2] and in experiment [3] were 0.45%, 90% and 76%, respectively.

On to `CCCC(=O)Nc1ccc(F)c(C(=O)c2c[nH]c3ncc(-c4ccc(Cl)cc4)cc23)c1F`, for which the Activity in experiment [1] came to 78%; in experiment [2] it was 94%; in experiment [3], 91%.

As for `O=C(c1c(F)ccc(NS(=O)(=O)Cc2ccccc2)c1F)c1c[nH]c2ncc(-c3ccc(Cl)cc3)cc12`, the results for the Activity in experiment [1], in experiment [2] and in experiment [3] were 30%, 100% and 94%, respectively.

On to `CCCS(=O)(=O)Nc1ccc(F)c(C(=O)c2c[nH]c3ncc(-c4ccc(OC)cc4Cl)cc23)c1F`, for which the Activity in experiment [1] stood at 18%; in experiment [2], 100%; in experiment [3], 100%.

Regarding `CCCS(=O)(=O)Nc1ccc(F)c(C(=O)c2c[nH]c3ncc(-c4ncccn4)cc23)c1F`, the Activity was 39% in experiment [1], 90% in experiment [2] and 92% in experiment [3].

For the molecule `CCCS(=O)(=O)Nc1ccc(F)c(C(=O)c2c[nH]c3ncc(-c4ccccc4C)cc23)c1F`, the Activity in experiment [1] is 6.9%; in experiment [2] it was 100%; in experiment [3], 67%.
